Literature values as cited in patent publication US8091275B2, “pH buffered plant nutrient compositions and methods for growing plants” (AeroGrow International, priority 2004, dated 2012).

System: plants
Settings: phosphorous maintained at levels adequate to stabilize pH (1 to 10 mM)

phosphorous
toxicity to plants: toxic to plants
